The values that follow come from patent US11357778B2, “Antagonist of the fibroblast growth factor receptor 3 (FGFR3) for use in the treatment or the prevention of skeletal disorders linked with abnormal activation of FGFR3” (INSTITUT NATIONAL DE LA SANTE ET DE LE RECHERCHE MEDICALE …, priority 2011, dated 2022).

The test system of experiment [1] is FGFR3^Y373C transfected NIH3T3 cells. Description: [3H]-thymidine incorporation in NIH3T3 cells expressing FGFR3^Y373C. The settings on record: A31 2 mM. The class given is cell-based, mouse. How it is done:
(§1) NIH-3T3 clones stably expressing FGFR3^+/+ (WT) and FGFR3^Y373C, FGFR3K650M (human constructs) were used. The stable clones were selected with G418. NIH-3T3 clones were incubated for 8 h in 10% newborn calf serum DMEM supplemented or not with A31 (2 mM). [3H] thymidine was added at a concentration of […] and incubated for 16 hours. The cells were harvested on glass fiber filter paper and assayed for radioactivity by liquid scintillation counting. The inventors used Top Count Microplates scintillation counter (Perkin Elmer).
(§2) To determine whether A31 modulates the mitogenic activity of activated FGFR3, the inventors measured [3H]-thymidine incorporation in FGFR3^Y373C and FGFR3^K650M transfected NIH3T3 cells. The mitogenic activity was increased in cells expressing FGFR3 mutations compared to WT (FGFR3^Y373C, 9927±2921 cpm; FGFR3^K650M, 15048±5251 cpm; WT, 7499±1667 cpm; p<10^−5 versus WT).
For orientation: Uptake of a labelled nucleoside into DNA is a usual measure of proliferation.

For experiment [2], the system named is FGFR3^K650M transfected NIH3T3 cells. Description: [3H]-thymidine incorporation in NIH3T3 cells expressing FGFR3^K650M. The class given is cell-based, mouse. The conditions noted are these: A31 2 mM. The method, then: as §1, §2
Experiment [3] deals with Fgfr3. Description: Fgfr3 protein expression (immunohistochemistry of femurs, Western blot of costal primary chondrocytes). The class given is cell-based, mouse. The settings on record: A31; data not shown. How it is done: Six sets of ex vivo experiments were performed. Femur embryos at day E16.5 from WT (n=6) and Fgfr3^Y367C/+ (n=6) mice were used and incubated for 5 days in DMEM medium with antibiotics and 0.2% BSA (Sigma) supplemented with A31 or PD173074 (as control) at a concentration of 2 mM. Right femur was cultured in supplemented medium and compared with the left one cultured in control medium. Rib cage from E16.5 WT and Fgfr3^Y367C/+ mice embryos were isolated and stripped of all soft tissues. Primary chondrocytes were obtained from rib cages. The ribs were incubated in a pronase solution (Roche; 2 mg/ml) followed by a digestion in Collagenase A (Roche; 3 mg/ml) at 37° C. […] To establish the effect of the inhibitors, the right femur was cultured in supplemented medium and compared with the left one cultured in control medium The bone length was measured at the beginning (before treatment) and at the end of time course. […] The genotype of WT, Fgfr3^Y367C/+ and Fgfr3^−/− mice were determined by PCR of tail DNA as previously described (Pannier et al., Biochim Biophys Acta, 1792: 140-147, 2009). […]
Immunoprecipitation were performed by incubating […] rabbit anti-FGFR3 (Sigma)/[…] protein with protein A-agarose (Roche). […] Bound proteins were detected by chemiluminescence (ECL, Amersham). The blots were rehybrididized with an antipan-actin antibody for quantification (Millipore). […]

The subject of experiment [4] is Fgfr3^Y367C/+ mouse growth plates. As to the kind of experiment: Proliferation markers and cell cycle regulators in growth plates (immunohistochemistry, PCNA quantification). The experiment is classed as cell-based. The method, then:
In situ hybridization using [S35]-UTP labeled antisense ribopropes for collagen X was carried out as previously described (Delezoide et al., Hum Mol Genet, 6, 1899-1906, 1997). Sections were counterstained with Hematoxylin. For immunohistochemistry, sections were stained with antibodies specific to FGFR3 (1:250 dilution; Sigma), anti PCNA (1:1000 dilution; Abcam), anti-KI67 (1:300; Abcam), anti-cyclin D1 (1:80 dilution; Santa Cruz) and anti-p57 (1:100 dilution; Santa Cruz) using the Dako Envision kit. Images were captured with an Olympus PD70-IX2-UCB microscope.
Three observers counted PCNA-positive and negative chondrocytes in proliferative […], prehypertrophic (PH) and hypertrophic (H) zones of the growth plate. A Student's t-test was used to compare treated (A31) and untreated femurs. Imagine software cellSens (Olympus) was used for counting cells. A p-value<0.05 is considered significant.
The inventors noted a higher expression of PCNA than KI67 in the mutant growth plate. Furthermore, the inventors investigated whether the presence of mutated Fgfr3 caused an impairment of expression of cell cycle regulators. In fact, activated Fgfr3 induced a significant overexpression of cyclin D1 in the proliferative and PH chondrocytes of Fgfr3^Y367C/+ mice. […] The inventors further analyzed the level of CDK inhibitors (CDKIs) negatively regulating the cell cycle, particularly p57, a member of the Cip/Kip family. Activated Fgfr3 induced a higher expression of p57 predominantly in late proliferative and PH chondrocytes. […] The inventors conclude that activated FGFR3 leads to over-expression of markers of proliferation (PCNA, KI67) and cell cycle regulators (cyclin D1 and p57) particularly in the prehypertrophic zone.

In experiment [5] the target is FGFR3 (Homo sapiens, UniProt P22607). The settings on record: read-out: IC50 for inhibition of autophosphorylation of FGFR3; cited from earlier work.
[6] abbreviates: A31-treated Fgfr3^Y367C/+ growth plates.

Molecules are shown by their SMILES.

FGFR3, sequence (P22607 23-806): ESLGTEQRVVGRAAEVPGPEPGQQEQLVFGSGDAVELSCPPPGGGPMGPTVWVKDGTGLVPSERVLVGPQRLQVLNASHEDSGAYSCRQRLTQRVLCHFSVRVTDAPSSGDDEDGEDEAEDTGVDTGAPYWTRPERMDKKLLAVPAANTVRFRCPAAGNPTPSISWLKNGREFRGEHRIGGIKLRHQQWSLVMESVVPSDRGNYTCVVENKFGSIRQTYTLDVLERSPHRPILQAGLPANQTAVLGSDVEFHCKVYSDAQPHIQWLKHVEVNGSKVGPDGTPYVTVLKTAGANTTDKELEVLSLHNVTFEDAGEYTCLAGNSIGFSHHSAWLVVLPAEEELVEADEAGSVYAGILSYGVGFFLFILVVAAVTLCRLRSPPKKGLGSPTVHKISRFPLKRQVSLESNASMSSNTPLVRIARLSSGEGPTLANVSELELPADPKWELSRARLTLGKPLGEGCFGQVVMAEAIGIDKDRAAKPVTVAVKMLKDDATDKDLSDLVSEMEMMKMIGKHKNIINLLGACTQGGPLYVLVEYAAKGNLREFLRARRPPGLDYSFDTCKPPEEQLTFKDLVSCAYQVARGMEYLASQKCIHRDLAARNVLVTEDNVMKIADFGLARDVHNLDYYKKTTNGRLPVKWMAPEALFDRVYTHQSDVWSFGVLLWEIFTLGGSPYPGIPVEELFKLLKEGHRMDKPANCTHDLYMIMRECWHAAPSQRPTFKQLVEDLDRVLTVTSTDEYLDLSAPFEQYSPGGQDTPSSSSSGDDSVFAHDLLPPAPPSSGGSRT

For `COc1cc(OC)cc(-c2cc3cnc(NCc4cn(CC5CCCN(C)C5)nn4)nc3nc2NC(=O)NC(C)(C)C)c1` (stereo not drawn) [Compound A31], the “[3H]-thymidine incorporation (DNA synthesis)” value in experiment [1] was determined as 3144±1201 cpm. In experiment [2], the “[3H]-thymidine incorporation (DNA synthesis)” value stood at 6281±2699 cpm. In the experiment on Fgfr3 [3], the “Fgfr3 expression in mutant femurs (immunohistochemical staining)” value is “large decrease of Fgfr3 expression”. For the same compound, in experiment [4] (setting [6]), the “PCNA positive cells, hypertrophic (H) zone” value was determined as 18% and the “PCNA positive cells, prehypertrophic (PH) zone” value is on record as 20%. Further, in experiment [4] (A31, PH zone, data not shown), the “p57 protein expression in growth plate” value is on record as “reduced expression of p57 protein”. In experiment [4] (A31, data not shown), the “KI67 expression in growth plates” value is reported as “decreased this expression” and the “cyclin D1 expression in mutant femurs (immunohistochemistry)” value was “returned cyclin D1 expression to control levels”. Besides, the IC50 at FGFR3 [5] is ~190 nM.

As usually defined, the IC50 is the concentration that inhibits the measured activity by half.
